The structures appear in SMILES notation. In brackets after ≈: the same amount, converted by molar mass. Activity calls are given as the source filed them. The rule behind the calls is not given here.

A short description of data set [1]: Inhibition of TNF-alpha-induced NF-kappaB expressed in human A549 cells treated 1 hr after TNFalpha challenge measured after 6 hrs by luciferase reporter gene assay. Type of data set: cell-based.
A short description of data set [2]: Hepatotoxicity against mouse Hepa-1c1c7 cells after 48 hrs by celltiter blue assay. In kind it is toxicity, cell-based.
The test system of data set [3] is CCRF-CEM. The data set can be described thus: Toxicity against human CCRF-CEM cells after 48 hrs by celltiter blue assay. In kind it is cell-based.
The subject of data set [4] is A549. As to the kind of experiment: Inhibition of NF-kappaB expressed in human A549 cells assessed as suppression of TNF-alpha-induced IKKalpha level at 25 uM after 7 hrs by Western blotting. Type of data set: cell-based.
The test system of data set [5] is A549. As to the kind of experiment: […] against human A549 cells after 48 hrs by celltiter blue assay. Type of data set: toxicity, cell-based. As to conditions: a549, 48 h.
Data set [6] has as its system A549. The data set can be described thus: Inhibition of NF-kappaB expressed in human A549 cells assessed as prevention of TNF-alpha-induced IkappaBalpha degradation level at 25 uM after 7 hrs by Western blotting. Type of data set: cell-based.
The subject of data set [7] is A549. The data set can be described thus: Inhibition of NF-kappaB expressed in human A549 cells assessed as suppression of TNF-alpha-induced COX2 level at 25 uM after 7 hrs by Western blotting. In kind it is cell-based.
The subject of data set [8] is A549. The data set can be described thus: Inhibition of NF-kappaB expressed in human A549 cells assessed as suppression of TNF-alpha-induced p65 level at 25 uM after 7 hrs by Western blotting. In kind it is cell-based.
The test system of data set [9] is HL-60. The data set can be described thus: Toxicity against human HL60 cells after 48 hrs by celltiter blue assay. As to conditions: hl-60, 48 h. In kind it is cell-based.

With `COc1cc(O)c(C(=O)/C=C/c2ccc(O)cc2)c(OC)c1` [FLAVOKAWAIN C], 8.1 µg/mL (≈ 27 µM) corresponded to half-maximal inhibition in [1] (IC50). In data set [2], half-maximal inhibition (IC50 at 48 h) required 9.8 µg/mL (≈ 32.6 µM).

In data set [1], `COc1ccc(/C=C/C(=O)c2c(O)cc(OC)cc2OC)cc1` [FLAVOKAWAIN A] displayed an IC50 of 11.6 µg/mL (≈ 36.9 µM). The IC50 at 48 h in [2] was found to be 13.8 µg/mL (≈ 43.9 µM).

`COc1cc(/C=C/c2ccccc2)oc(=O)c1` [DESMETHOXYYANGONIN] displayed an IC50 in data set [1] of 33 µg/mL (≈ 145 µM). This compound also had an IC50 at 48 h in data set [2] of 173 µg/mL (≈ 758 µM).

`COC1=CC(=O)O[C@@H](/C=C/c2ccccc2)C1` [KAVAIN] displayed an IC50 in data set [1] of 32 µg/mL (≈ 139 µM). In [2], this compound gave an IC50 at 48 h of 166 µg/mL (≈ 721 µM).

Turning to `COC1=CC(=O)O[C@@H](CCc2ccc3c(c2)OCO3)C1` [DIHYDROMETHYSTICIN], the IC50 in data set [1] turned out to be 20 µg/mL (≈ 72.4 µM). Further, the IC50 at 48 h in data set [2] was determined as 313 µg/mL (≈ 1130 µM).

In turn, `COc1cc(O)c(C(=O)/C=C/c2ccccc2)c(OC)c1` [FLAVOKAWAIN B] yielded an IC50 in data set [1] of 8 µg/mL (≈ 28.1 µM). In [2], the IC50 at 48 h is 6.6 µg/mL (≈ 23.2 µM).

Consider `COC1=CC(=O)O[C@@H](CCc2ccccc2)C1` [DIHYDROKAWAIN], for which the concentration for half-maximal inhibition (IC50) in [1] was 60 µg/mL (≈ 258 µM). Moreover, the IC50 at 48 h in [2] stood at 175 µg/mL (≈ 753 µM).

Take `COC1=CC(=O)O[C@@H](/C=C/c2ccc3c(c2)OCO3)C1` [METHYSTICIN]: the Activity result in data set [3], in [5] and in data set [9] was “Non-toxic” in each case. Besides, the inhibition result in data set [4], in [6], in data set [7] and in data set [8] was “Active” throughout. This compound showed an IC50 in data set [1] of 0.19 µg/mL (≈ 0.693 µM). Moreover, the IC50 at 48 h in data set [2] is 392 µg/mL (≈ 1430 µM).

The values above are taken from ChEMBL document CHEMBL1156027, “Identification of methysticin as a potent and non-toxic NF-kappaB inhibitor from kava, potentially responsible for kava's chemopreventive activity” (Bioorg Med Chem Lett, 2009).
